Reference: ChEMBL document CHEMBL3425467, “Synthesis, cytotoxicity and haemolytic activity of Pulsatilla saponin A, D derivatives” (Bioorg Med Chem Lett, 2015)

Key:
[1] = Hemolytic activity in rabbit RBC assessed as induction of hemolysis; format: cell-based, Oryctolagus cuniculus, Erythrocyte; settings: red blood cells, read-out: HD50 (the source's name)
[2] = Cytotoxicity against human Bel7402 cells assessed as inhibition of cell growth after 24 hrs by MTT assay; format: functional, cell-based; settings: Bel-7402, 24 h
[3] = Ratio of hemolytic HD50 for PSA to hemolytic HD50 for compound in rabbit RBC; format: ADME, cell-based, Oryctolagus cuniculus; settings: erythrocyte
[4] = Cytotoxicity against human HL7702 cells assessed as inhibition of cell growth after 24 hrs by MTT assay; format: cell-based; settings: L02, 24 h
A549 = test: Cytotoxicity against human A549 cells assessed as inhibition of cell growth after 24 hrs by MTT assay; format: functional, cell-based; settings: A549, 24 h
SMMC-7721 = test: Cytotoxicity against human SMMC7721 cells assessed as inhibition of cell growth after 24 hrs by MTT assay; format: functional, cell-based; settings: SMMC-7721, 24 h

Structure (SMILES)	HC50 [1]	IC50 [2]	Ratio [3]	IC50 [4]	IC50 (A549)	IC50 (SMMC-7721)
COC(=O)[C@H]1CCCN1C(=O)[C@]12CCC(C)(C)C[C@H]1C1=CC[C@@H]3[C@@]4(C)CC[C@H](O[C@@H]5OC[C@H](O)[C@H](O)[C@H]5O[C@@H]5O[C@@H](C)[C@H](O)[C@@H](O)[C@H]5O)[C@@](C)(CO)[C@@H]4CC[C@@]3(C)[C@]1(C)CC2	494 µM	59.6 µM	20	36.6 µM	43.2 µM	36 µM
C[C@@H]1O[C@@H](O[C@H]2[C@H](O[C@H]3CC[C@@]4(C)[C@@H](CC[C@]5(C)[C@@H]4CC=C4[C@@H]6CC(C)(C)CC[C@]6(C(=O)Nc6ccc(C(=O)O)cc6)CC[C@]45C)[C@]3(C)CO)OC[C@H](O)[C@@H]2O)[C@H](O)[C@H](O)[C@H]1O	356 µM	4.2 µM	20	0.7 µM	1.1 µM	> 100 µM
CC(=O)OCOC(=O)[C@]12CCC(C)(C)C[C@H]1C1=CC[C@@H]3[C@@]4(C)CC[C@H](O[C@@H]5OC[C@H](O)[C@H](O)[C@H]5O[C@@H]5O[C@@H](C)[C@H](O)[C@@H](O)[C@H]5O)[C@@](C)(CO)[C@@H]4CC[C@@]3(C)[C@]1(C)CC2	3.6 µM	33.8 µM		20.5 µM	21.3 µM	13.2 µM
C[C@@H]1O[C@@H](O[C@H]2[C@H](O[C@H]3CC[C@@]4(C)[C@@H](CC[C@]5(C)[C@@H]4CC=C4[C@@H]6CC(C)(C)CC[C@]6(C(=O)N6CCN(CCC(=O)O)CC6)CC[C@]45C)[C@]3(C)CO)OC[C@H](O)[C@@H]2O)[C@H](O)[C@H](O)[C@H]1O	195 µM	> 100 µM	20	46.6 µM	23.4 µM	> 100 µM
C[C@@H]1O[C@@H](O[C@H]2[C@H](O[C@H]3CC[C@@]4(C)[C@@H](CC[C@]5(C)[C@@H]4CC=C4[C@@H]6CC(C)(C)CC[C@]6(C(=O)Nc6ccccc6O)CC[C@]45C)[C@]3(C)CO)OC[C@H](O)[C@@H]2O)[C@H](O)[C@H](O)[C@H]1O	58.2 µM	> 100 µM		85.5 µM	> 100 µM	1.3 µM
C[C@@H]1O[C@@H](O[C@H]2[C@H](O[C@H]3CC[C@@]4(C)[C@@H](CC[C@]5(C)[C@@H]4CC=C4[C@@H]6CC(C)(C)CC[C@]6(C(N)=O)CC[C@]45C)[C@]3(C)CO)OC[C@H](O)[C@@H]2O)[C@H](O)[C@H](O)[C@H]1O	30.2 µM	> 100 µM		> 100 µM	> 100 µM	> 100 µM
CCN(CC)CCNC(=O)[C@]12CCC(C)(C)C[C@H]1C1=CC[C@@H]3[C@@]4(C)CC[C@H](O[C@@H]5OC[C@H](O)[C@H](O)[C@H]5O[C@@H]5O[C@@H](C)[C@H](O)[C@@H](O)[C@H]5O)[C@@](C)(CO)[C@@H]4CC[C@@]3(C)[C@]1(C)CC2	75.3 µM	> 100 µM		40.6 µM	65.3 µM	48 µM
C[C@@H]1O[C@@H](O[C@H]2[C@H](O[C@H]3CC[C@@]4(C)[C@@H](CC[C@]5(C)[C@@H]4CC=C4[C@@H]6CC(C)(C)CC[C@]6(C(=O)NCC(=O)O)CC[C@]45C)[C@]3(C)CO)OC[C@H](O)[C@@H]2O)[C@H](O)[C@H](O)[C@H]1O	> 500 µM	0.9 µM	20	> 100 µM	1 µM	3.2 µM
C[C@@H]1O[C@@H](O[C@H]2[C@H](O[C@H]3CC[C@@]4(C)[C@@H](CC[C@]5(C)[C@@H]4CC=C4[C@@H]6CC(C)(C)CC[C@]6(C(=O)N[C@H](CO)C(=O)O)CC[C@]45C)[C@]3(C)CO)OC[C@H](O)[C@@H]2O)[C@H](O)[C@H](O)[C@H]1O	8.3 µM	22.3 µM		25.6 µM	32.5 µM	26.6 µM
C[C@@H]1O[C@@H](O[C@H]2[C@H](O[C@H]3CC[C@@]4(C)[C@@H](CC[C@]5(C)[C@@H]4CC=C4[C@@H]6CC(C)(C)CC[C@]6(C(=O)NC6CC6)CC[C@]45C)[C@]3(C)CO)OC[C@H](O)[C@@H]2O)[C@H](O)[C@H](O)[C@H]1O	127 µM	69.2 µM		36.2 µM	38.3 µM	32.6 µM
COC(=O)[C@]12CCC(C)(C)C[C@H]1C1=CC[C@@H]3[C@@]4(C)CC[C@H](O[C@@H]5OC[C@H](O)[C@H](O)[C@H]5O[C@@H]5O[C@@H](C)[C@H](O)[C@@H](O)[C@H]5O)[C@@](C)(CO)[C@@H]4CC[C@@]3(C)[C@]1(C)CC2	8.5 µM	72.1 µM		36.3 µM	27 µM	40.8 µM
C[C@@H]1O[C@@H](O[C@H]2[C@H](O[C@H]3CC[C@@]4(C)[C@@H](CC[C@]5(C)[C@@H]4CC=C4[C@@H]6CC(C)(C)CC[C@]6(C(=O)N6CCOCC6)CC[C@]45C)[C@]3(C)CO)OC[C@H](O)[C@@H]2O)[C@H](O)[C@H](O)[C@H]1O	230 µM	37.9 µM	20	22 µM	34.7 µM	17.2 µM
C[C@@H]1O[C@@H](O[C@H]2[C@H](O[C@H]3CC[C@@]4(C)[C@@H](CC[C@]5(C)[C@@H]4CC=C4[C@@H]6CC(C)(C)CC[C@]6(C(=O)NCCN6CCCC6)CC[C@]45C)[C@]3(C)CO)OC[C@H](O)[C@@H]2O)[C@H](O)[C@H](O)[C@H]1O	104 µM	> 100 µM		44.4 µM	> 100 µM	46.8 µM
COC(=O)[C@@H](CO)NC(=O)[C@]12CCC(C)(C)C[C@H]1C1=CC[C@@H]3[C@@]4(C)CC[C@H](O[C@@H]5OC[C@H](O)[C@H](O)[C@H]5O[C@@H]5O[C@@H](C)[C@H](O)[C@@H](O)[C@H]5O)[C@@](C)(CO)[C@@H]4CC[C@@]3(C)[C@]1(C)CC2	144 µM	> 100 µM	20	> 100 µM	> 100 µM	88.3 µM
C[C@@H]1O[C@@H](O[C@H]2[C@H](O[C@H]3CC[C@@]4(C)[C@@H](CC[C@]5(C)[C@@H]4CC=C4[C@@H]6CC(C)(C)CC[C@]6(C(=O)N6CCC[C@@H]6C(=O)O)CC[C@]45C)[C@]3(C)CO)OC[C@H](O)[C@@H]2O)[C@H](O)[C@H](O)[C@H]1O	22.9 µM	64 µM		53.7 µM	61.6 µM	41.4 µM
COC(=O)CCN1CCN(C(=O)[C@]23CCC(C)(C)C[C@H]2C2=CC[C@@H]4[C@@]5(C)CC[C@H](O[C@@H]6OC[C@H](O)[C@H](O)[C@H]6O[C@@H]6O[C@@H](C)[C@H](O)[C@@H](O)[C@H]6O)[C@@](C)(CO)[C@@H]5CC[C@@]4(C)[C@]2(C)CC3)CC1	57.7 µM	53.2 µM		61.7 µM	14 µM	38.3 µM
